Results published in ChEMBL document CHEMBL4699482, “Synthesis and SAR of a series of mGlu NAMs based on an ethyl-8-methoxy-4-(4-phenylpiperazin-1-yl)quinoline carboxylate core” (Bioorg Med Chem Lett, 2020).
pIC50: −log10 of the molar value.

How the values were obtained:
[1] = biological target: Metabotropic glutamate receptor 7 (Rattus norvegicus, UniProt P35400); test: (§1) Negative allosteric modulation of rat mGlu7 receptor expressed in HEK cells co-expressing Galpha15 assessed as reduction in calcium mobilization incubated for 142 secs prior to glutamate addition and after 120 secs treated with L-AP4 and measured after 40 secs by Fluo-4 AM dye based fluorescence assay; assay type: functional, cell-based
Chain of Metabotropic glutamate receptor 7 (P35400 whole entry): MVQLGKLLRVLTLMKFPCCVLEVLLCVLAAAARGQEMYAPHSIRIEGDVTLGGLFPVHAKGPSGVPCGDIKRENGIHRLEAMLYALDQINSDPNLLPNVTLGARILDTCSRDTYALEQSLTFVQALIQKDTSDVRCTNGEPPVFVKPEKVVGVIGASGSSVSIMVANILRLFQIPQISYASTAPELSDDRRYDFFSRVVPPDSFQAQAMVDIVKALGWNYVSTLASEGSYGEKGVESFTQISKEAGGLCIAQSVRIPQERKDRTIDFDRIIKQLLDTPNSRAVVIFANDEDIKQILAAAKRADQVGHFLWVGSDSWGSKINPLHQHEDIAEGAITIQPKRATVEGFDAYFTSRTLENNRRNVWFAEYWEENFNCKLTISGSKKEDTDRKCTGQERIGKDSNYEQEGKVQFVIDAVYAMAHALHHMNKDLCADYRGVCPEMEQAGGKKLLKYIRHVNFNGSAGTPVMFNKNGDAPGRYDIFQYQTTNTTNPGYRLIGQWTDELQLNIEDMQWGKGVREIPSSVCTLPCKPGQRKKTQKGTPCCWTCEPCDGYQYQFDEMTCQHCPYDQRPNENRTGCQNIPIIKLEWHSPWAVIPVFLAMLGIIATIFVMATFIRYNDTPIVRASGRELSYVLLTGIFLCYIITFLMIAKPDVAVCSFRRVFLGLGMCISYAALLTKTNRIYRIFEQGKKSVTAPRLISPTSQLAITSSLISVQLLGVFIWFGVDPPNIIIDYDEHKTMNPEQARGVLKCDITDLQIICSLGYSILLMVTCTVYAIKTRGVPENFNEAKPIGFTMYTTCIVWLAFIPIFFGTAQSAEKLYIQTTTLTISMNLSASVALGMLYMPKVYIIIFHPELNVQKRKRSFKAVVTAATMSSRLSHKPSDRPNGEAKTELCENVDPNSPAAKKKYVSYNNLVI

[2] = biological target: Metabotropic glutamate receptor 7 (Rattus norvegicus) (UniProt P35400); test: as §1, with “assessed as minimum L-AP4 response by measuring reduction in” for “assessed as reduction in”, “fluorescence assay relative to L-AP4” for “fluorescence assay”; assay type: functional, cell-based; design: scale not given: the % may be the effect or the level left; settings: time 302.0 sec
Chain of Metabotropic glutamate receptor 7 (Rattus norvegicus) (P35400 whole entry): as above

[3] = biological target: Metabotropic glutamate receptor 8 (Homo sapiens, UniProt O00222); test: Negative allosteric modulation of mGlu8 receptor (unknown origin)
Chain of Metabotropic glutamate receptor 8 (O00222 whole entry): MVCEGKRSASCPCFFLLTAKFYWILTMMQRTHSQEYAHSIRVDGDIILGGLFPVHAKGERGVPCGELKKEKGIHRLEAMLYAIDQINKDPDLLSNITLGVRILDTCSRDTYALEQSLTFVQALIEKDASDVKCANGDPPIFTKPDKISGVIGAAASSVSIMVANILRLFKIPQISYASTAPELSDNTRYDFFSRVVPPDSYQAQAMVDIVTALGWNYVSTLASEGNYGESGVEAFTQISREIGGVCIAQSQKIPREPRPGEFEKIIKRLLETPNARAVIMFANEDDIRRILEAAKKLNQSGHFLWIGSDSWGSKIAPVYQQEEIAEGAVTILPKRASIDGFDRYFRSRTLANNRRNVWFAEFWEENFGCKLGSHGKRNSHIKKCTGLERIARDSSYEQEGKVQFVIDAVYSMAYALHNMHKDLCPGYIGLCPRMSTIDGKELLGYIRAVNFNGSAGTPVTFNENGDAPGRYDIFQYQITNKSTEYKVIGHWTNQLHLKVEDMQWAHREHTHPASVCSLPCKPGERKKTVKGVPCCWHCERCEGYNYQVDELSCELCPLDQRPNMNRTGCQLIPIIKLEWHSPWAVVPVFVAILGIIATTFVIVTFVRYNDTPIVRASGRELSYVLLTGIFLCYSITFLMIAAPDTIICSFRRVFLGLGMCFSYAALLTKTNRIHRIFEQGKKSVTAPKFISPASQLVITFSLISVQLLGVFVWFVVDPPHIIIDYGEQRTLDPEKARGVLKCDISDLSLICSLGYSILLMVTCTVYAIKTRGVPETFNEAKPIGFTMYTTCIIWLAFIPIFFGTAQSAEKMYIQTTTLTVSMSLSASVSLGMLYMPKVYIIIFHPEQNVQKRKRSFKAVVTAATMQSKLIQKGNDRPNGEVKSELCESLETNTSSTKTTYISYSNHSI

[4] = Fraction unbound in rat plasma at 5 uM incubated for 4 hrs by equilibrium dialysis method; assay type: ADME, cell-free
[5] = Fraction unbound in human plasma at 5 uM incubated for 4 hrs by equilibrium dialysis method; assay type: ADME, cell-free
[6] = biological target: Metabotropic glutamate receptor 4 (Homo sapiens, UniProt Q14833); test: Negative allosteric modulation of mGlu4 receptor (unknown origin)
Chain of Metabotropic glutamate receptor 4 (Q14833 whole entry): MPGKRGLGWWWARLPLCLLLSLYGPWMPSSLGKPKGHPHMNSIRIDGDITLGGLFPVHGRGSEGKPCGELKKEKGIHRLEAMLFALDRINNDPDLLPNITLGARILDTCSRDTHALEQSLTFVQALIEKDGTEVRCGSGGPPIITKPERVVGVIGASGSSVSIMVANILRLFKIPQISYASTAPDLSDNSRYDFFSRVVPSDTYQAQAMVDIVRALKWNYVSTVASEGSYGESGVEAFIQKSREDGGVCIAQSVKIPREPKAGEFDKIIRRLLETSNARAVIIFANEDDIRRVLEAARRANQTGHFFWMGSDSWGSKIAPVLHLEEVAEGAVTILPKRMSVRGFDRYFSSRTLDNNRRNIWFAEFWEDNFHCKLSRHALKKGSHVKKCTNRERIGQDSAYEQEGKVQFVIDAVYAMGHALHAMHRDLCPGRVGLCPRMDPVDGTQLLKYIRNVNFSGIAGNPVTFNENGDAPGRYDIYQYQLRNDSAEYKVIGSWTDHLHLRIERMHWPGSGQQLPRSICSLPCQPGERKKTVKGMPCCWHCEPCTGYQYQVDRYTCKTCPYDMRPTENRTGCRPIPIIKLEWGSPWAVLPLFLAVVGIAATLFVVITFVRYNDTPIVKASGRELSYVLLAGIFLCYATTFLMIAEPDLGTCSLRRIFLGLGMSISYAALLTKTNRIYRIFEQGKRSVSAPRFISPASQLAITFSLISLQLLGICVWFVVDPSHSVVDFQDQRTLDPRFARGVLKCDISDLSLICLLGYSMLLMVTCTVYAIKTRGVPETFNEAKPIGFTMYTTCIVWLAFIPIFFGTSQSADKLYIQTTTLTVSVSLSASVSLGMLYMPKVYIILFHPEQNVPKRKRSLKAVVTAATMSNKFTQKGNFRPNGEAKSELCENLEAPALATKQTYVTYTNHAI

[7] = Fraction unbound in mouse brain homogenate at 5 uM incubated for 6 hrs by equilibrium dialysis method; assay type: ADME, tissue-based
[8] = Fraction unbound in rat brain homogenate at 5 uM incubated for 6 hrs by equilibrium dialysis method; assay type: ADME, tissue-based
[9] = Fraction unbound in mouse plasma at 5 uM incubated for 4 hrs by equilibrium dialysis method; assay type: ADME, cell-free
[10] = filed as negative allosteric modulator

Row | Structure (SMILES) | pIC50 [1] | Activity [2, 10] [%] | other results
1 | CCOC(=O)c1cnc2c(OC)cccc2c1N1CCN(c2ccccc2OC(F)(F)F)CC1 | < 4.52 |  | 
2 | CCOC(=O)c1cnc2sccc2c1N1CCN(c2ccccc2OC)CC1 | 5.35 | 26 | 
3 | CCOC(=O)c1cnccc1N1CCN(c2ccccc2OC)CC1 | 5.38 | 13 | 
4 | CCOC(=O)c1cnc2c(OC)cccc2c1N1CCN(c2cccs2)CC1 | < 4.52 |  | 
5 | CCOC(=O)c1cnc2c(OC)cccc2c1N1CCN(c2ccccc2C)CC1 | < 5.00 | 41 | 
6 | CCOC(=O)c1cnc2c(OC)cccc2c1C1C2CC1CN(c1ccccc1OC)C2 (stereo unspecified) | < 4.52 |  | 
7 | CCOC(=O)c1cnc2c(OC)cccc2c1N1CCN(c2ccccc2OC)CC1C (racemic) | 5.82 | 6.1 | 
8 | CCOC(=O)c1cnc2c(OC)cccc2c1-c1ccc(-c2ccccc2OC)cc1 | 5.54 | 4.2 | Fu [4]: < 0.001; Fu [5]: < 0.001
9 | CCOC(=O)c1cnc2c(OC)cccc2c1N1CCN(c2ccc(OC)cc2OC)CC1 | 5.72 | 9 | 
10 | CCOC(=O)c1cnc2c(OC)cccc2c1N1CC2CN(c3ccccc3OC)CC2C1 (stereo unspecified) | < 5.00 |  | Activity [2]: 57%
11 | CCOC(=O)c1cnc2c(OC)cccc2c1-c1cnc(-c2ccccc2OC)nc1 | 5.62 | 12 | 
12 | CCOC(=O)c1cnc2c(OC)cccc2c1N1CCN(c2cc(F)ccc2OC)CC1 | 5.68 | 15 | 
13 | CCOC(=O)c1cnc2c(OC)cccc2c1C1=CCN(c2ccccc2OC)CC1 | 5.44 | 9.6 | 
14 | CCOC(=O)c1cnc2c(OC)cccc2c1N1CCN(c2ccccc2C#N)CC1 | 5.38 | 14 | 
15 | CCOC(=O)c1cnc2c(OC)cccc2c1N1CCN(c2nccnc2OC)CC1 | 5.52 | 11 | 
16 | CCOC(=O)c1cnc2c(OC)cccc2c1-c1ccc(-c2ccccc2OC(C)C)nc1 | 5.82 | 5.8 | 

Row | Structure (SMILES) | pIC50 [1] | Activity [2, 10] [%] | other results
17 | CCOC(=O)c1cnc2c(OC)cccc2c1N1CCN(c2ccnn2C)CC1 | < 4.52 |  | 
18 | CCOC(=O)c1cnc2c(OC)cccc2c1N1CCN(c2cncs2)CC1 | < 4.52 |  | 
19 | CCOC(=O)c1cnc2c(OC)cccc2c1N1CCN(c2ccccc2OC(C)C)CC1 | 5.64 | 6.5 | 
20 | CCOC(=O)c1cnc2c(OC)cccc2c1N1CC2(CN(c3ccccc3OC)C2)C1 | < 4.52 |  | 
21 | CCOC(=O)c1cnc2c(OC)cccc2c1N1CCN(c2ccccc2Cl)CC1 | < 4.52 |  | 
22 | CCOC(=O)c1cnc2c(OC)cccc2c1C1CC2CC(C1)N2c1ccccc1OC (stereo unspecified) | < 5.00 | 41 | 
23 | CCOC(=O)c1cnc2c(OC)cccc2c1-c1cc(F)c(-c2ccccc2OC)nc1OC | 5.68 | 24 | 
24 | CCOC(=O)c1cnc2c(OC)cccc2c1N1CCN(c2ccccc2F)CC1 | 5.21 | 12 | 
25 | CCOC(=O)c1cnc2c(OC)cccc2c1N(C)CCN(C)c1ccccc1OC | 5.36 | 9.6 | 
26 | CCOC(=O)c1cnc2c(OC)cccc2c1-c1ccc(-c2ccccc2OC)cn1 | 5.55 | 6.8 | 
27 | CCOC(=O)c1cnc2ccccc2c1N1CCN(c2ccccc2OC)CC1 | < 4.52 |  | 
28 | CCOC(=O)c1ccc2c(OC)cccc2c1N1CCN(c2ccccc2OC)CC1 | < 4.52 |  | 
29 | CCOC(=O)c1cnc2c(OC)cccc2c1C1CCN(c2ccccc2OC)CC1 | < 5.00 | 41 | 
30 | CCOC(=O)c1cnc2c(OC)cccc2c1N1CCN(c2ccccc2OCC)CC1 | 5.29 | 8.7 | 
31 | CCOC(=O)c1cnc2ccsc2c1N1CCN(c2ccccc2OC)CC1 | 5.35 | 24 | 

More lines, main results first:

Row | pIC50 [1] | Activity [2, 10] [%] | Structure (SMILES) | other results
32 | 5.82 | 10 | CCOC(=O)c1cnc2c(OC)cccc2c1N1CCN(c2cccnc2OC)CC1 | 
33 | 6.39 | 5.6 | CCOC(=O)c1cnc2c(OC)cccc2c1-c1ccc(-c2ccccc2SC)nc1 | 
34 | 6.19 | 5.6 | CCOC(=O)c1cnc2c(OC)cccc2c1N1CCN(c2ccccc2OC)CC1 | pIC50 [3]: < 4.52; Fu [4]: 0.016; Fu [5]: 0.018; pIC50 [6]: < 4.52
35 | 6.09 | 5 | CCOC(=O)c1cnc2c(OC)cc(OC)cc2c1-c1ccc(-c2ccccc2OCC)nc1 | 
36 | 6.29 | 4.7 | CCOC(=O)c1cnc2c(OC)cccc2c1N1CCN(c2ccccc2SC)CC1 | 
37 | 6.43 | 6.3 | CCOC(=O)c1cnc2c(OC)cccc2c1-c1ccc(-c2ccccc2OCC)nc1 | 
38 | 6.27 | 5.1 | CCOC(=O)c1cnc2c(OC)cccc2c1-c1cnc(-c2ccccc2OC)cn1 | 
39 | 5.89 | 8.6 | CCOC(=O)c1cnc2c(OC)cccc2c1N1CCN(c2ccccc2OC)C(C)C1 (racemic) | 
40 | 6.46 | 3.6 | CCOC(=O)c1cnc2c(OC)cccc2c1-c1cnc(-c2ccccc2OC)c(OC)c1 | Fu [7]: 0.04; Fu [4]: 0.01; Fu [8]: 0.04; Fu [9]: 0.01
41 | 6.17 | 3.9 | CCOC(=O)c1cnc2c(OC)cc(OC)cc2c1N1CCN(c2ccccc2OC)CC1 | 
42 | 6.10 | 11 | CCOC(=O)c1cnc2c(OC)cccc2c1N1CCN(c2c(OC)cccc2OC)CC1 | 
43 | 6.06 | 3.5 | CCOC(=O)c1cnc2c(OC)cc(OC)cc2c1-c1ccc(-c2ccccc2OC)nc1 | 
44 | 6.22 | 6.5 | CCOC(=O)c1cnc2c(OC)cccc2c1-c1ccc(-c2ccccc2OC)nc1 | 
45 | 5.92 | 6.5 | CCOC(=O)c1cnc2c(OC)cccc2c1-c1ccn(Cc2ccccc2OC)c1 | 
